± gives the expanded uncertainty stated by the source.
Assay: xn = mol fraction of the nth substance listed
Settings: 101 kPa, Liquid; for mass density: Vibrating tube method

NCCO.O=CO [2-hydroxyethylammonium formate] + CCO
Settings | mass density [kg/m3] | speed of sound [m/s]
305.65 K, x2 = 0 | – | 1690.8 ± 9.8
305.65 K, x2 = 0.058 | – | 1704.7 ± 9.7
305.65 K, x2 = 0.098 | – | 1685.5 ± 9.5
305.65 K, x2 = 0.193 | – | 1642.7 ± 9.2
305.65 K, x2 = 0.296 | – | 1598.7 ± 8.8
305.65 K, x2 = 0.399 | – | 1545.2 ± 8.4
305.65 K, x2 = 0.5 | – | 1485.4 ± 8
305.65 K, x2 = 0.598 | – | 1421.8 ± 7.7
305.65 K, x2 = 0.701 | – | 1353.1 ± 7.3
305.65 K, x2 = 0.799 | – | 1281.3 ± 6.9
305.65 K, x2 = 0.9 | – | 1206.1 ± 6.5
305.65 K, x2 = 0.95 | – | 1165.7 ± 6.3
308.15 K, x2 = 0 | 1169.39 ± 31 | 1684.8 ± 9.7
308.15 K, x2 = 0.058 | 1159.76 ± 31 | 1699.5 ± 9.7
308.15 K, x2 = 0.098 | 1147.72 ± 30 | 1680.2 ± 9.5
308.15 K, x2 = 0.193 | 1122.18 ± 30 | 1637.3 ± 9.1
308.15 K, x2 = 0.296 | 1096.28 ± 30 | 1593 ± 8.8
308.15 K, x2 = 0.399 | 1065.47 ± 30 | 1539.2 ± 8.4
308.15 K, x2 = 0.5 | 1030.18 ± 30 | 1479.2 ± 8
308.15 K, x2 = 0.598 | 991.781 ± 30 | 1415.2 ± 7.6
308.15 K, x2 = 0.701 | 948.127 ± 30 | 1346.1 ± 7.2
308.15 K, x2 = 0.799 | 898.707 ± 30 | 1274 ± 6.8
308.15 K, x2 = 0.9 | 842.788 ± 30 | 1198.3 ± 6.5
308.15 K, x2 = 0.95 | 811.783 ± 30 | 1157.6 ± 6.3
310.65 K, x2 = 0 | 1167.62 ± 31 | 1678.7 ± 9.7
310.65 K, x2 = 0.058 | 1158.11 ± 31 | 1694.4 ± 9.6
310.65 K, x2 = 0.098 | 1146.06 ± 30 | 1674.9 ± 9.5
310.65 K, x2 = 0.193 | 1120.49 ± 30 | 1631.8 ± 9.1
310.65 K, x2 = 0.296 | 1094.56 ± 30 | 1587.4 ± 8.8
310.65 K, x2 = 0.399 | 1063.71 ± 30 | 1533.3 ± 8.4
310.65 K, x2 = 0.5 | 1028.38 ± 30 | 1473 ± 8
310.65 K, x2 = 0.598 | 989.927 ± 30 | 1408.7 ± 7.6
310.65 K, x2 = 0.701 | 946.21 ± 30 | 1339.3 ± 7.2
310.65 K, x2 = 0.799 | 896.716 ± 30 | 1266.7 ± 6.8
310.65 K, x2 = 0.9 | 840.709 ± 30 | 1190.5 ± 6.4
310.65 K, x2 = 0.95 | 809.653 ± 30 | 1149.5 ± 6.2
313.15 K, x2 = 0 | 1165.84 ± 31 | 1672.7 ± 9.7
313.15 K, x2 = 0.058 | 1156.45 ± 31 | 1689.2 ± 9.6
313.15 K, x2 = 0.098 | 1144.4 ± 30 | 1669.8 ± 9.4
313.15 K, x2 = 0.193 | 1118.8 ± 30 | 1626.3 ± 9.1
313.15 K, x2 = 0.296 | 1092.84 ± 30 | 1581.7 ± 8.7
313.15 K, x2 = 0.399 | 1061.95 ± 30 | 1527.4 ± 8.4
313.15 K, x2 = 0.5 | 1026.57 ± 30 | 1466.8 ± 8
313.15 K, x2 = 0.598 | 988.066 ± 30 | 1402.2 ± 7.6
313.15 K, x2 = 0.701 | 944.29 ± 30 | 1332.3 ± 7.2
313.15 K, x2 = 0.799 | 894.718 ± 30 | 1259.3 ± 6.8
313.15 K, x2 = 0.9 | 838.621 ± 30 | 1182.7 ± 6.4
313.15 K, x2 = 0.95 | 807.511 ± 30 | 1141.4 ± 6.2
315.65 K, x2 = 0 | 1164.06 ± 31 | 1666.7 ± 9.7
315.65 K, x2 = 0.058 | 1154.81 ± 31 | 1684.1 ± 9.6
315.65 K, x2 = 0.098 | 1142.73 ± 30 | 1664.5 ± 9.4
315.65 K, x2 = 0.193 | 1117.11 ± 30 | 1620.9 ± 9.1
315.65 K, x2 = 0.296 | 1091.12 ± 30 | 1576 ± 8.7
315.65 K, x2 = 0.399 | 1060.19 ± 30 | 1521.5 ± 8.3
315.65 K, x2 = 0.5 | 1024.77 ± 30 | 1460.5 ± 7.9
315.65 K, x2 = 0.598 | 986.208 ± 30 | 1395.6 ± 7.5
315.65 K, x2 = 0.701 | 942.365 ± 30 | 1325.5 ± 7.2
315.65 K, x2 = 0.799 | 892.716 ± 30 | 1252 ± 6.8
315.65 K, x2 = 0.9 | 836.524 ± 30 | 1174.9 ± 6.4
315.65 K, x2 = 0.95 | 805.362 ± 30 | 1133.4 ± 6.2
318.15 K, x2 = 0 | 1162.29 ± 31 | 1660.8 ± 9.6
318.15 K, x2 = 0.058 | 1153.16 ± 31 | 1679 ± 9.6
318.15 K, x2 = 0.098 | 1141.07 ± 30 | 1659.2 ± 9.4
318.15 K, x2 = 0.193 | 1115.42 ± 30 | 1615.5 ± 9.1
318.15 K, x2 = 0.296 | 1089.4 ± 30 | 1570.4 ± 8.7
318.15 K, x2 = 0.399 | 1058.44 ± 30 | 1515.6 ± 8.3
318.15 K, x2 = 0.5 | 1022.96 ± 30 | 1454.4 ± 7.9
318.15 K, x2 = 0.598 | 984.346 ± 30 | 1389.2 ± 7.5
318.15 K, x2 = 0.701 | 940.437 ± 30 | 1318.7 ± 7.1
318.15 K, x2 = 0.799 | 890.71 ± 30 | 1244.8 ± 6.7
318.15 K, x2 = 0.9 | 834.423 ± 30 | 1167.2 ± 6.3
318.15 K, x2 = 0.95 | 803.205 ± 30 | 1125.4 ± 6.2
320.65 K, x2 = 0 | 1160.51 ± 31 | 1654.8 ± 9.6
320.65 K, x2 = 0.058 | 1151.51 ± 31 | 1673.9 ± 9.6
320.65 K, x2 = 0.098 | 1139.41 ± 30 | 1654 ± 9.4
320.65 K, x2 = 0.193 | 1113.73 ± 30 | 1610.1 ± 9
320.65 K, x2 = 0.296 | 1087.69 ± 30 | 1564.8 ± 8.7
320.65 K, x2 = 0.399 | 1056.68 ± 30 | 1509.9 ± 8.3
320.65 K, x2 = 0.5 | 1021.15 ± 30 | 1448.2 ± 7.9
320.65 K, x2 = 0.598 | 982.484 ± 30 | 1382.8 ± 7.5
320.65 K, x2 = 0.701 | 938.509 ± 30 | 1311.8 ± 7.1
320.65 K, x2 = 0.799 | 888.697 ± 30 | 1237.6 ± 6.7
320.65 K, x2 = 0.9 | 832.314 ± 30 | 1159.5 ± 6.3
320.65 K, x2 = 0.95 | 801.039 ± 30 | 1117.5 ± 6.1
323.15 K, x2 = 0 | 1158.73 ± 31 | 1648.9 ± 9.6
323.15 K, x2 = 0.058 | 1149.88 ± 31 | 1668.8 ± 9.6
323.15 K, x2 = 0.098 | 1137.78 ± 30 | 1648.8 ± 9.4
323.15 K, x2 = 0.193 | 1112.06 ± 30 | 1604.7 ± 9
323.15 K, x2 = 0.296 | 1085.98 ± 30 | 1559.4 ± 8.7
323.15 K, x2 = 0.399 | 1054.93 ± 30 | 1504.2 ± 8.3
323.15 K, x2 = 0.5 | 1019.35 ± 30 | 1442.1 ± 7.9
323.15 K, x2 = 0.598 | 980.632 ± 30 | 1376.5 ± 7.5
323.15 K, x2 = 0.701 | 936.584 ± 30 | 1305.1 ± 7.1
323.15 K, x2 = 0.799 | 886.69 ± 30 | 1230.5 ± 6.7
323.15 K, x2 = 0.9 | 830.212 ± 30 | 1152 ± 6.3
323.15 K, x2 = 0.95 | 798.879 ± 30 | 1109.7 ± 6.1

Reference: the NIST ThermoML archive (doi:10.1016/j.jct.2007.05.011)
